From PubChem BioAssay AID588672 (Sanford-Burnham Center for Chemical Genomics, 2011)
Activity calls are given as the source filed them.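 The calls were made as follows: active = IC50 at or below 20 µM; inactive = the rest.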

Target: Glucose-6-phosphate 1-dehydrogenase (Homo sapiens) (UniProt P11413)
Assay: human G6PD enzyme inhibitors, SAR follow-up, selectivity assay for P. falciparum G6PD inhibitor project, biochemical, fluorescence, dose response, set 2 (AID 588672)
Settings: recombinant human G6PD, NADPH-diaphorase-resazurin fluorescence

Sequence of Glucose-6-phosphate 1-dehydrogenase (Homo sapiens) (P11413 whole entry, looked up): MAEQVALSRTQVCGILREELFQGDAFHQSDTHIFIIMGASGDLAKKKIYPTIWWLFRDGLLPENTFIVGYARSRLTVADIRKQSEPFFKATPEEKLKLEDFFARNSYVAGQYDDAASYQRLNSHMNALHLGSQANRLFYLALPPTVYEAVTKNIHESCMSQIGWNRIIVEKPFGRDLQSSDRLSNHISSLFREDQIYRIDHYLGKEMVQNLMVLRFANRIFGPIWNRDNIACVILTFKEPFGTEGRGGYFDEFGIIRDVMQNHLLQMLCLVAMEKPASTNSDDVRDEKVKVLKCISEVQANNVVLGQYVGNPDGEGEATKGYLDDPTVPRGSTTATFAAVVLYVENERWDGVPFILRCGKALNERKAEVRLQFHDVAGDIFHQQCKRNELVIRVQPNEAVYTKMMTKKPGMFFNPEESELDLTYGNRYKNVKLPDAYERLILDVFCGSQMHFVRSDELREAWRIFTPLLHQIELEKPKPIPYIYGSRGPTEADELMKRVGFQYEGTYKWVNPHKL

Q: With `O=C(NCCN1CCOCC1)c1ccc2c(c1)NC(=O)c1ccccc1O2` as the compound, how does the IC50 read?
A: Its IC50 is > 80 µM (inactive).

Q: For `CN1CCN(C(=O)c2ccc3c(c2)NC(=O)/C(=C/c2ccccc2Cl)S3)CC1`, which IC50 is on record?
A: The IC50 was > 80 µM (inactive).

Q: `O=C1COc2ccc(C(=O)NCCN3CCOCC3)cc2N1` was tested. Which IC50 did it give?
A: Its IC50 is > 80 µM (inactive).

Q: Which IC50 does the source give for `O=C1Nc2cc(C(=O)NCc3ccccc3)ccc2S/C1=C\c1ccccc1F` here?
A: The IC50 was > 80 µM (inactive).

Q: Which IC50 does the source give for `O=C1Nc2cc(C(=O)NCCN3CCCC3)ccc2S/C1=C\c1ccccc1F` here?
A: The IC50 was > 80 µM (inactive).

Q: How did the IC50 turn out when `O=C1COc2ccc(C(=O)NCCN3CCCCC3)cc2N1` was run?
A: Its IC50 is > 80 µM (inactive).

Q: With `O=C1Nc2cc(C(=O)NCCN3CCCCC3)ccc2S/C1=C\c1ccccc1F` as the compound, how does the IC50 read?
A: Its IC50 is > 80 µM (inactive).

Q: With `O=C1COc2ccc(C(=O)NCCN3CCCC3)cc2N1` as the compound, how does the IC50 read?
A: Its IC50 is > 80 µM (inactive).

Q: How did the IC50 turn out when `CCN1CCCC1CNC(=O)c1ccc2c(c1)NC(=O)/C(=C/c1ccccc1F)S2` (stereo not given) was run?
A: The IC50 was > 80 µM (inactive).

Q: Which IC50 does the source give for `CCN(CC)CCNC(=O)c1ccc2c(c1)NC(=O)c1ccccc1O2` here?
A: Its IC50 is > 80 µM (inactive).

Q: `O=C(NCCN1CCCC1)c1ccc2c(c1)NC(=O)c1ccccc1O2` was tested. Which IC50 did it give?
A: Its IC50 is > 80 µM (inactive).

Q: Which IC50 does the source give for `O=C1Nc2cc(C(=O)NCCN3CCOCC3)ccc2S/C1=C\c1ccccc1F` here?
A: The IC50 was > 80 µM (inactive).

Q: How did the IC50 turn out when `CN(C)CCNC(=O)c1ccc2c(c1)NC(=O)c1ccccc1O2` was run?
A: Its IC50 is > 80 µM (inactive).

Q: With `CCN1CCC[C@@H]1CNC(=O)c1ccc2c(c1)NC(=O)/C(=C/c1ccccc1F)S2` as the compound, how does the IC50 read?
A: Its IC50 is > 80 µM (inactive).

Q: With `CCN1CCCC1CNC(=O)c1ccc2c(c1)NC(=O)c1ccccc1O2` (stereo not given) as the compound, how does the IC50 read?
A: The IC50 was > 80 µM (inactive).

Q: With `CCN1CCCC1CNC(=O)c1ccc2c(c1)NC(=O)/C(=C/c1ccccc1)S2` (stereo not given) as the compound, how does the IC50 read?
A: Its IC50 is > 80 µM (inactive).

Q: With `O=C(NCCN1CCCCC1)c1ccc2c(c1)NC(=O)c1ccccc1O2` as the compound, how does the IC50 read?
A: The IC50 was > 80 µM (inactive).

Q: For `CCN1CCC[C@H]1CNC(=O)c1ccc2c(c1)NC(=O)/C(=C/c1ccccc1F)S2`, which IC50 is on record?
A: Its IC50 is > 80 µM (inactive).

Q: Which IC50 does the source give for `CCN1CCCC1CNC(=O)c1ccc2c(c1)NC(=O)c1ccccc1S2` (stereo not given) here?
A: Its IC50 is > 80 µM (inactive).

Q: `CN(C)CCNC(=O)c1ccc2c(c1)NC(=O)CO2` was tested. Which IC50 did it give?
A: Its IC50 is > 80 µM (inactive).

Q: For `CCN1CCCC1CNC(=O)c1ccc2c(c1)NC(=O)/C(=C/c1cccc3ccccc13)S2` (stereo not given), which IC50 is on record?
A: The IC50 was > 80 µM (inactive).

Q: `CCN1CCCC1CNC(=O)c1ccc2c(c1)NC(=O)/C(=C/c1ccccc1C)S2` (stereo not given) was tested. Which IC50 did it give?
A: The IC50 was > 80 µM (inactive).

Q: `CCN(CC)CCNC(=O)c1ccc2c(c1)NC(=O)c1ccccc1S2` was tested. Which IC50 did it give?
A: Its IC50 is > 80 µM (inactive).

Q: How did the IC50 turn out when `CCN(CC)CCNC(=O)c1ccc2c(c1)NC(=O)CO2` was run?
A: Its IC50 is > 80 µM (inactive).

Q: With `CN1CCCC1CCNC(=O)c1ccc2c(c1)NC(=O)/C(=C/c1ccccc1F)S2` (stereo not given) as the compound, how does the IC50 read?
A: Its IC50 is > 80 µM (inactive).

Q: `O=C(NCCN1CCCC1)c1ccc2c(c1)NC(=O)c1ccccc1S2` was tested. Which IC50 did it give?
A: The IC50 was > 80 µM (inactive).

Q: For `CCN1CCCC1CNC(=O)c1ccc2c(c1)NC(=O)/C(=C/c1ccccc1OC)S2` (stereo not given), which IC50 is on record?
A: Its IC50 is > 80 µM (inactive).

Q: For `CCN1CCCC1CNC(=O)c1ccc2c(c1)NC(=O)CO2` (stereo not given), which IC50 is on record?
A: The IC50 was > 80 µM (inactive).

Q: With `CCN1CCCC1CNC(=O)c1ccc2c(c1)NC(=O)CS2` (stereo not given) as the compound, how does the IC50 read?
A: Its IC50 is > 80 µM (inactive).

Q: For `CN(C)CCNC(=O)c1ccc2c(c1)NC(=O)/C(=C/c1ccccc1F)S2`, which IC50 is on record?
A: The IC50 was > 80 µM (inactive).
